Results on nine compounds are retold here after ChEMBL document CHEMBL1144247, “Fluorescent polycyclic ligands for nitric oxide synthase (NOS) inhibition” (Bioorg Med Chem, 2008).

This assay can be described thus: Inhibition of NOS in Sprague-Dawley rat brain by oxyhaemoglobin assay.
`O=C(NC12CC3CC(CC(C3)C1)C2)c1n[nH]c2ccccc12`: the IC50 was 2.53 µM and the pIC50 is recorded as 3.52.

In turn, `CNc1ccccc1C(=O)NC12CC3CC(CC(C3)C1)C2` showed a pIC50 of 2.53.

On to `O=C(O)c1n[nH]c2ccccc12`, for which the IC50 turned out to be 9.65 µM and the pIC50 came to 3.28.

Regarding `O=C(OC12C3C4CC5C6C4C1C6C1(OCCCN12)C53)c1n[nH]c2ccccc12` (centres undefined), the midpoint of inhibition, the IC50, lay at 0.35 µM and the pIC50 was determined as 4.22.

On to `N#CSc1c2ccccc2cn1C12CC3CC(CC(C3)C1)C2`, for which the pIC50 is recorded as 3.88.

In turn, `O=[N+]([O-])c1c2ccccc2cn1C12CC3CC(CC(C3)C1)C2` returned a pIC50 of 3.74.

Take `N#Cc1c2ccccc2cn1C12CC3CC(CC(C3)C1)C2`: the IC50 was found to be 0.291 µM and the pIC50 is 4.52.

The compound `CNc1ccccc1C(=O)OC12C3C4CC5C6C4C1C6C1(OCCCN12)C53` (centres undefined) displayed a negative-log IC50 (pIC50) of 2.93.

Take `N=C(N)NN` [PIMAGEDINE]: the IC50 amounted to 19.4 µM and the pIC50 turned out to be 2.72.

By IC50 is commonly meant the concentration needed to halve the response being measured. High values mean a need for much substance, low ones inhibition by little substance. The term pIC50 denotes the negative decadic logarithm of the IC50, by convention in mol/L. A low value points to a large IC50.
